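Cultured in 96-well plates, cells were exposed to test compound for 48 hours across five concentrations. TGI denotes the concentration required for complete inhibition of growth.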
How the values were obtained:
Experiment in all cases: NCI anticancer screen, dose series, 48 h
SW-620 colon = test system: SW-620 colon
A498 renal = test system: A498 renal
COLO 205 colon = test system: COLO 205 colon
HCC-2998 colon = test system: HCC-2998 colon
NCI/ADR-RES ovarian = test system: NCI/ADR-RES ovarian
HT29 colon = test system: HT29 colon
SNB-19 CNS = test system: SNB-19 CNS
NCI-H522 lung = test system: NCI-H522 lung
SK-MEL-2 melanoma = test system: SK-MEL-2 melanoma
MDA-MB-231 breast = test system: MDA-MB-231 breast
HCT-15 colon = test system: HCT-15 colon
KM12 colon = test system: KM12 colon
NCI-H226 lung = test system: NCI-H226 lung
OVCAR-8 ovarian = test system: OVCAR-8 ovarian
UACC-62 melanoma = test system: UACC-62 melanoma
SR leukemia = test system: SR leukemia
MOLT-4 leukemia = test system: MOLT-4 leukemia
HOP-62 NSCLC = test system: HOP-62 NSCLC
IGROV1 ovarian = test system: IGROV1 ovarian
HOP-92 NSCLC = test system: HOP-92 NSCLC
MDA-N = test system: MDA-N
786-0 renal = test system: 786-0 renal
EKVX NSCLC = test system: EKVX NSCLC
RPMI-8226 leukemia = test system: RPMI-8226 leukemia
OVCAR-4 ovarian = test system: OVCAR-4 ovarian
CCRF-CEM leukemia = test system: CCRF-CEM leukemia
SF-295 CNS = test system: SF-295 CNS
UACC-257 melanoma = test system: UACC-257 melanoma
PC-3 prostate = test system: PC-3 prostate
K-562 leukemia = test system: K-562 leukemia
ACHN renal = test system: ACHN renal
HCT-116 colon = test system: HCT-116 colon
HL-60(TB) leukemia = test system: HL-60(TB) leukemia
LOX IMVI melanoma = test system: LOX IMVI melanoma
U251 CNS = test system: U251 CNS
NCI-H23 lung = test system: NCI-H23 lung
SK-MEL-28 melanoma = test system: SK-MEL-28 melanoma
CAKI-1 renal = test system: CAKI-1 renal
MALME-3M melanoma = test system: MALME-3M melanoma
NCI-H460 lung = test system: NCI-H460 lung
MDA-MB-435 = test system: MDA-MB-435
DU-145 prostate = test system: DU-145 prostate
HS 578T breast = test system: HS 578T breast
OVCAR-5 ovarian = test system: OVCAR-5 ovarian
SF-539 CNS = test system: SF-539 CNS
SK-OV-3 ovarian = test system: SK-OV-3 ovarian
T-47D breast = test system: T-47D breast
SF-268 CNS = test system: SF-268 CNS
SK-MEL-5 melanoma = test system: SK-MEL-5 melanoma
SN12C renal = test system: SN12C renal
RXF 393 renal = test system: RXF 393 renal
TK-10 renal = test system: TK-10 renal
UO-31 renal = test system: UO-31 renal
SNB-75 CNS = test system: SNB-75 CNS
A549 NSCLC = test system: A549 NSCLC

`NS(=O)(=O)c1ccc(N2C(=O)C(=O)N(c3ccccc3)C2=S)cc1` was tested, and the TGI (SW-620 colon) was greater than 100 µM, the TGI (A498 renal) was greater than 100 µM and the TGI (COLO 205 colon) was greater than 100 µM. For the same compound, the TGI (HCC-2998 colon) was greater than 100 µM, the TGI (NCI/ADR-RES ovarian) was greater than 100 µM and the TGI (HT29 colon) was greater than 100 µM. It also gave a TGI (SNB-19 CNS) greater than 100 µM, a TGI (NCI-H522 lung) greater than 100 µM and a TGI (SK-MEL-2 melanoma) greater than 100 µM. For the same compound, the TGI (MDA-MB-231 breast) was greater than 100 µM, the TGI (HCT-15 colon) was greater than 100 µM and the TGI (KM12 colon) was greater than 100 µM. The TGI (NCI-H226 lung) was greater than 100 µM, the TGI (OVCAR-8 ovarian) was greater than 100 µM and the TGI (UACC-62 melanoma) was greater than 100 µM. The TGI (SR leukemia) was greater than 100 µM, the TGI (MOLT-4 leukemia) was greater than 100 µM and the TGI (HOP-62 NSCLC) was greater than 100 µM. It also gave a TGI (IGROV1 ovarian) greater than 100 µM, a TGI (HOP-92 NSCLC) of 95.9 µM and a TGI (MDA-N) greater than 100 µM. The TGI (786-0 renal) was greater than 100 µM, the TGI (EKVX NSCLC) was greater than 100 µM and the TGI (RPMI-8226 leukemia) was greater than 100 µM. The TGI (OVCAR-4 ovarian) was greater than 100 µM, the TGI (CCRF-CEM leukemia) was greater than 100 µM and the TGI (SF-295 CNS) was greater than 100 µM. For the same compound, the TGI (UACC-257 melanoma) was greater than 100 µM, the TGI (PC-3 prostate) was greater than 100 µM and the TGI (K-562 leukemia) was greater than 100 µM. For the same compound, the TGI (ACHN renal) was greater than 100 µM, the TGI (HCT-116 colon) was greater than 100 µM and the TGI (HL-60(TB) leukemia) was greater than 100 µM. The TGI (LOX IMVI melanoma) was greater than 100 µM, the TGI (U251 CNS) was greater than 100 µM and the TGI (NCI-H23 lung) was greater than 100 µM. The TGI (SK-MEL-28 melanoma) was greater than 100 µM, the TGI (CAKI-1 renal) was greater than 100 µM and the TGI (MALME-3M melanoma) was greater than 100 µM. It also gave a TGI (NCI-H460 lung) greater than 100 µM, a TGI (MDA-MB-435) greater than 100 µM and a TGI (DU-145 prostate) greater than 100 µM. For the same compound, the TGI (HS 578T breast) was greater than 100 µM, the TGI (OVCAR-5 ovarian) was greater than 100 µM and the TGI (SF-539 CNS) was greater than 100 µM. For the same compound, the TGI (SK-OV-3 ovarian) was greater than 100 µM, the TGI (T-47D breast) was greater than 100 µM and the TGI (SF-268 CNS) was greater than 100 µM. The TGI (SK-MEL-5 melanoma) was greater than 100 µM, the TGI (SN12C renal) was greater than 100 µM and the TGI (RXF 393 renal) was greater than 100 µM. For the same compound, the TGI (TK-10 renal) was greater than 100 µM, the TGI (UO-31 renal) was greater than 100 µM and the TGI (SNB-75 CNS) was greater than 100 µM. The TGI (A549 NSCLC) was greater than 100 µM.

— PubChem BioAssay (NCI)
